From US11180484B2, “Pyrazole derivatives as plasma kallikrein inhibitors” (KALVISTA PHARMACEUTICALS LIMITED, priority 2016, dated 2021)
Values after ≈ are worked out from the molar mass of the structure shown. Read-outs that look alike come from different tables or passages of the source.

Legend:
[1] = In vitro permeability, Caco-2 model for oral absorption; type: in vitro ADME; conditions: human, apical to basolateral, 50 μM test compound, 37° C.
Outline: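 Caco-2 monolayers grown on collagen inserts for 3 days, with 50 μM compound added apically and incubated 1 hour at 37° C with shaking. Apical-to-basolateral transport measured by LCMS in both compartments. Monolayer integrity checked by TEER before and after, and by Lucifer Yellow flux.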

trypsin = assay: Determination of enzyme selectivity: trypsin; type: biochemical, human; conditions: substrate at Km concentration
[2] = Plasma protein binding (PPB), rapid equilibrium dialysis, human plasma; type: in vitro ADME; conditions: 5 μM test compound, dialysis 5 hrs at 37° C.
Human Factor XIIa = Human Factor XIIa (Homo sapiens (Human), UniProt P00748); assay: Factor XIIa inhibitory activity in vitro; type: biochemical; conditions: 25° C., substrate H-DPro-Phe-Arg-AFC; read-out: IC50 (human FXIIa)
Protocol: (§1) Human Factor XIIa (Enzyme Research Laboratories) was incubated at 25° C. with the fluorogenic substrate H-DPro-Phe-Arg-AFC and various concentrations of the test compound. Residual enzyme activity (initial rate of reaction) was determined by measuring the change in […] at 410 nm and the IC50 value for the test compound was determined.

thrombin = thrombin (Homo sapiens (Human), UniProt P00734); assay: Determination of enzyme selectivity: thrombin; type: biochemical; conditions: substrate at Km concentration
Protocol: Human serine protease enzymes plasmin, thrombin and trypsin were assayed for enzymatic activity using an appropriate fluorogenic substrate. Protease activity was measured by monitoring the accumulation of liberated fluorescence from the substrate over 5 minutes. The linear rate of fluorescence increase per minute was expressed as percentage (%) activity. The Km for the cleavage of each substrate was determined by standard transformation of the Michaelis-Menten equation.

Human KLK1 = Human KLK1 (Homo sapiens (Human), UniProt P06870); assay: Determination of the IC50 for KLK1; type: biochemical; conditions: 25° C., substrate H-DVal-Leu-Arg-AFC
Protocol: as §1, with “KLK1 (Callbiochem)” for “Factor XIIa (Enzyme Research Laboratories)”, “H-DVal-Leu-Arg-AFC” for “H-DPro-Phe-Arg-AFC”

Human plasma kallikrein = Human plasma kallikrein (Homo sapiens (Human), UniProt P03952); assay: Determination of the IC50 for plasma kallikrein; type: biochemical; conditions: 25° C., substrate H-DPro-Phe-Arg-AFC; read-out: IC50 (human PKal)
Protocol: as §1, with “plasma kallikrein (Protogen)” for “Factor XIIa (Enzyme Research Laboratories)”

[3] = Predicted plasma clearance (Clp), well-stirred model, rat; type: in vitro ADME; conditions: percentage of hepatic blood flow
[4] = Intrinsic clearance in rat liver microsomes; type: in vitro ADME; conditions: rat liver microsomes 0.5 mg/mL, 5 μM test compound, 37° C.; read-out: rat liver microsome (Clint μL/min/mg protein)
Protocol: (§2) Rat or human liver microsomes (0.5 mg/mL; Corning) were incubated with 5 μM test compound at 37° C. on a shaking platform (150 rpm). Samples were taken at 0, 6, 12, 18, 24 and 60 min and test compound concentrations were determined by LCMS against a calibration curve.

Human FXIa = Human FXIa (Homo sapiens (Human), UniProt P03951); assay: Determination of the % inhibition / IC50 for FXIa; type: biochemical; conditions: for inhibition at 40 µM: 40 μM test compound, read-out: % Inhibition @ 40 μM (human FXIa); for IC50: 25° C., substrate Z-Gly-Pro-Arg-AFC
Protocol: FXIa inhibitory activity in vitro was determined using standard published methods (see e.g. Johansen et al., Int. J. Tiss. Reac. 1986, 8, 185; Shori et al., Biochem. Pharmacol., 1992, 43, 1209; Sturzebecher et al., Biol. Chem. Hoppe-Seyler, 1992, 373, 1025). […]

[5] = Intrinsic clearance in human liver microsomes; type: in vitro ADME; conditions: human liver microsomes 0.5 mg/mL, 5 μM test compound, 37° C.; read-out: Human liver microsome (Clint μL/min/mg protein)
Protocol: as §2

[6] = Predicted plasma clearance (Clp), well-stirred model, human; type: in vitro ADME; conditions: percentage of hepatic blood flow
[7] = Solubility in water and 0.1N HCl (aq); type: physicochemical; conditions: thermodynamic from solid, incubated at 1 mg/mL, 37° C.
Protocol: Solubility was determined in water and 0.1N HCl (aq). Test compounds were incubated at 1 mg/mL for 24 hrs at 37° C. on a shaking platform (500 rpm). Samples were taken at 1, 4 and 24 hrs and centrifuged at 15,000 g for 10 min. Test compound concentration in the supernatant was determined by LCMS against a standard curve.

[8] = Plasma protein binding (PPB), rapid equilibrium dialysis, rat plasma; type: in vitro ADME; conditions: 5 μM test compound, dialysis 5 hrs at 37° C.
[9] = simulated gastric fluid, 0.1N HCl (aq), read-out: Solubility 0.1N HCl (aq)
[10] = water, read-out: Solubility Water

Chain of Human FXIa (P03951 388-625): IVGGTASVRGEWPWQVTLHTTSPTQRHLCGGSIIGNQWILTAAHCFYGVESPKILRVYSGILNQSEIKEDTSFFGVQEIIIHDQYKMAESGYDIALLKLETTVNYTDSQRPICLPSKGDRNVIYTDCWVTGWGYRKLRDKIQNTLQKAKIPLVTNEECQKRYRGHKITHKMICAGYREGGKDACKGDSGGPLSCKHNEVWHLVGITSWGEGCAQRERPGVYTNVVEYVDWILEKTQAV
Chain of Human FXIa (P03951 19-387): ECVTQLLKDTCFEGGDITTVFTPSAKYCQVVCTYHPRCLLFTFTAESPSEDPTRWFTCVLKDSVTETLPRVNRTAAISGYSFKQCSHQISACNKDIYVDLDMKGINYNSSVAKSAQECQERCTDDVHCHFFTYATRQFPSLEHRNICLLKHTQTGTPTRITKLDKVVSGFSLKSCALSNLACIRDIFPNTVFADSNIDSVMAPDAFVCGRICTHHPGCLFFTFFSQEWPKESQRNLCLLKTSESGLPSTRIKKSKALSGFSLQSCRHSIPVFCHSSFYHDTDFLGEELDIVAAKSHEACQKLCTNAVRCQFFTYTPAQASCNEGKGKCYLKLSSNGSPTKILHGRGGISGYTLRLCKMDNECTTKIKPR
Chain of Human plasma kallikrein (P03952 391-638): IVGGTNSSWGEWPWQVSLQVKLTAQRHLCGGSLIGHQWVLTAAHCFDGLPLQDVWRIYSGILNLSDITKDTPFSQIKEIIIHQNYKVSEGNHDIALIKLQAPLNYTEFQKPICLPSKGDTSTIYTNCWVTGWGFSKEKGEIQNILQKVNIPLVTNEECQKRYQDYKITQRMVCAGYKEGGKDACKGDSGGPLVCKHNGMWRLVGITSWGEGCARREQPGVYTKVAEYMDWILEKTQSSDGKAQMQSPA
Chain of Human plasma kallikrein (P03952 20-390): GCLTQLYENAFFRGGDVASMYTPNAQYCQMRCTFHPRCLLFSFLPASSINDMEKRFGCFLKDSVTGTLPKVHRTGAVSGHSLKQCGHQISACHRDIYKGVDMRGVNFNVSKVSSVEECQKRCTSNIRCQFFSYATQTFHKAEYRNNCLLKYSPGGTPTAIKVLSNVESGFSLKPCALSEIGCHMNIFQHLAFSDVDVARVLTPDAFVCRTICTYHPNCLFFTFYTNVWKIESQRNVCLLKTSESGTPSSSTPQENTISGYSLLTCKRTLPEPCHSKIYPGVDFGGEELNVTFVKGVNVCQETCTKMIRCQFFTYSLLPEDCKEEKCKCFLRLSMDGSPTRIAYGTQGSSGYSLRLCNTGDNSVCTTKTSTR
Chain of Human Factor XIIa (P00748 373-615): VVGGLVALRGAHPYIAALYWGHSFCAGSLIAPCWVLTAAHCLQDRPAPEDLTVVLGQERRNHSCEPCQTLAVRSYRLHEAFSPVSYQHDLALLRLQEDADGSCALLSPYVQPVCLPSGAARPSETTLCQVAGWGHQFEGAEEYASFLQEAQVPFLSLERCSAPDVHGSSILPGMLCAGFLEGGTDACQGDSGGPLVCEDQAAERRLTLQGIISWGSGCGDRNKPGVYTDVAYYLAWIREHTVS
Chain of Human KLK1 (P06870 25-262): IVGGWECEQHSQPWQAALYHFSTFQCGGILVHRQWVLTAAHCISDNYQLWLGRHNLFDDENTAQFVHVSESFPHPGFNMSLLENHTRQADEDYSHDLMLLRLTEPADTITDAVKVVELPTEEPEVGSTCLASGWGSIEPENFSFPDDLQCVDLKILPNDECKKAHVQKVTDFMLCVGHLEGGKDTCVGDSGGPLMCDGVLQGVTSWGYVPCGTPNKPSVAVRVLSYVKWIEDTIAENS

| Papp at 1 h, 50 μM [1] [×10⁻⁶ cm/s] | IC50 (trypsin) [µM] | fraction unbound at 5 h, 5 μM [2] | IC50 (Human Factor XIIa) [µM] | IC50 (thrombin) [µM] | IC50 (Human KLK1) [µM] | IC50 (Human plasma kallikrein) [nM] | Predicted in vivo rat Clp (% LBF) [3] [% LBF] | microsomal CLint at 5 μM [4] [µL/min/mg] | inhibition at 40 µM (Human FXIa) [%] | IC50 (Human FXIa) [nM] | microsomal CLint at 5 μM [5] [µL/min/mg] | Predicted in vivo human Clp (% LBF) [6] [% LBF] | solubility [7, 9] [µg/mL] | solubility [7, 10] [µg/mL] | fraction unbound at 5 h, 5 μM [8] | Compound |
| --- | --- | --- | --- | --- | --- | --- | --- | --- | --- | --- | --- | --- | --- | --- | --- | --- |
| 6 | > 40 | 0.22 | > 4 | 19.3 | > 4 | 0.6 | 5 | 19 | 91 | 3700 | 29 | 21 | 19 (≈ 34 µM) | 7 (≈ 12.5 µM) | 0.11 | COCc1nn(Cc2ccc(Cn3ccccc3=O)cc2)cc1C(=O)NCc1c(-n2cnnn2)ccc(OC)c1F [Example 39, N-{[2-Fluoro-3-methoxy-6-(1,2,3,4-tetrazol-1-yl)phenyl]methyl}-3-(methoxymethyl)-1-({4-[(2-oxopyridin-1-yl)methyl]phenyl}methyl)pyrazole-4-carboxamide] |
| 19 | > 40 | 0.09 | > 40 | 7.31 | > 40 | 1.5 | 3 | 23 | 96 | 127 | 4 | 1 | 924 (≈ 1770 µM) | 93 (≈ 178 µM) | 0.05 | COCc1nn(Cc2cnc(N3CCCC3)nc2)cc1C(=O)NCc1c(-n2cnnn2)ccc(OC)c1F [Example 79, N-{[2-Fluoro-3-methoxy-6-(1,2,3,4-tetrazol-1-yl)phenyl]methyl}-3-(methoxymethyl)-1-{[2-(pyrrolidin-1-yl)pyrimidin-5-yl]methyl}pyrazole-4-carboxamide] |
